Measured values taken from ChEMBL document CHEMBL5108044, “Discovery of a Novel Potent STAT3 Inhibitor HP590 with Dual p-Tyr705/Ser727 Inhibitory Activity for Gastric Cancer Treatment” (J Med Chem, 2022).
The source made the active and inactive calls. The calls are words filed in the database; no cut-off is given here.

What was measured:
MKN-45 [1] = experiment: In vivo inhibition of STAT3 in human MKN-45 cells xenografted in BALB/c nude mouse assessed as reduction in c-myc gene expression at 25 to 50 mg/kg, po qd administered for 5 weeks by Western blot analysis; format: functional, organism-based; conditions: dose 25-50 mg/kg
MKN-45 [2] = experiment: Induction of apoptosis in human MKN-45 cells assessed as necrotic cells 20 nM incubated for 48 hrs by FITC-annexin V/propidium iodide staining based flow cytometry (reference value: 10.3%); format: functional
[3] = biological target: T1, Signal transducer and activator of transcription 3 (Homo sapiens, UniProt P40763); experiment: Inhibition of STAT3 phosphorylation at Ser727 residue in human MGC-803 cells upto 40 nM by Western blotting analysis; format: cell-based; conditions: time <= 24.0 hrs, TDE = time-dependent effect
T1 sequence (P40763 whole entry): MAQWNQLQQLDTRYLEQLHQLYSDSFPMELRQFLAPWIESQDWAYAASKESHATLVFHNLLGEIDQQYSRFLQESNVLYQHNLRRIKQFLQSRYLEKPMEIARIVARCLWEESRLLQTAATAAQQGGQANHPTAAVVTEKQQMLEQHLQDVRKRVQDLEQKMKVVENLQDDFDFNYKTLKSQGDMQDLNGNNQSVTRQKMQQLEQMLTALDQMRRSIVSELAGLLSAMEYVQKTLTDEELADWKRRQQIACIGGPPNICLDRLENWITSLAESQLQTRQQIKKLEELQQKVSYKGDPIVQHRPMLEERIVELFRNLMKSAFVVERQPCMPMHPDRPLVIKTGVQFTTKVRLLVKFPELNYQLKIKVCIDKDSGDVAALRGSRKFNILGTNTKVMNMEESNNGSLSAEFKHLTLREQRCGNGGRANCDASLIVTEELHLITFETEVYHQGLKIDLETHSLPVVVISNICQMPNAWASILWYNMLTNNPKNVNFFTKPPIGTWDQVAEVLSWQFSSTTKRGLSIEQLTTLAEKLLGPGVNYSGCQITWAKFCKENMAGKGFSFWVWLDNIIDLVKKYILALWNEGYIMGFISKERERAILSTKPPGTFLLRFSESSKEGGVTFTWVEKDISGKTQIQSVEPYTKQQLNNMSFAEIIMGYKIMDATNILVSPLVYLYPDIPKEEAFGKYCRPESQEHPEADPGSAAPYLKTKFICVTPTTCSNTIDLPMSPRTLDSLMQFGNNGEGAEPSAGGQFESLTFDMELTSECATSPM

[4] = biological target: Epidermal growth factor receptor (Homo sapiens, UniProt P00533); experiment: Inhibition of EGFR (unknown origin)
Epidermal growth factor receptor, sequence (P00533 whole entry): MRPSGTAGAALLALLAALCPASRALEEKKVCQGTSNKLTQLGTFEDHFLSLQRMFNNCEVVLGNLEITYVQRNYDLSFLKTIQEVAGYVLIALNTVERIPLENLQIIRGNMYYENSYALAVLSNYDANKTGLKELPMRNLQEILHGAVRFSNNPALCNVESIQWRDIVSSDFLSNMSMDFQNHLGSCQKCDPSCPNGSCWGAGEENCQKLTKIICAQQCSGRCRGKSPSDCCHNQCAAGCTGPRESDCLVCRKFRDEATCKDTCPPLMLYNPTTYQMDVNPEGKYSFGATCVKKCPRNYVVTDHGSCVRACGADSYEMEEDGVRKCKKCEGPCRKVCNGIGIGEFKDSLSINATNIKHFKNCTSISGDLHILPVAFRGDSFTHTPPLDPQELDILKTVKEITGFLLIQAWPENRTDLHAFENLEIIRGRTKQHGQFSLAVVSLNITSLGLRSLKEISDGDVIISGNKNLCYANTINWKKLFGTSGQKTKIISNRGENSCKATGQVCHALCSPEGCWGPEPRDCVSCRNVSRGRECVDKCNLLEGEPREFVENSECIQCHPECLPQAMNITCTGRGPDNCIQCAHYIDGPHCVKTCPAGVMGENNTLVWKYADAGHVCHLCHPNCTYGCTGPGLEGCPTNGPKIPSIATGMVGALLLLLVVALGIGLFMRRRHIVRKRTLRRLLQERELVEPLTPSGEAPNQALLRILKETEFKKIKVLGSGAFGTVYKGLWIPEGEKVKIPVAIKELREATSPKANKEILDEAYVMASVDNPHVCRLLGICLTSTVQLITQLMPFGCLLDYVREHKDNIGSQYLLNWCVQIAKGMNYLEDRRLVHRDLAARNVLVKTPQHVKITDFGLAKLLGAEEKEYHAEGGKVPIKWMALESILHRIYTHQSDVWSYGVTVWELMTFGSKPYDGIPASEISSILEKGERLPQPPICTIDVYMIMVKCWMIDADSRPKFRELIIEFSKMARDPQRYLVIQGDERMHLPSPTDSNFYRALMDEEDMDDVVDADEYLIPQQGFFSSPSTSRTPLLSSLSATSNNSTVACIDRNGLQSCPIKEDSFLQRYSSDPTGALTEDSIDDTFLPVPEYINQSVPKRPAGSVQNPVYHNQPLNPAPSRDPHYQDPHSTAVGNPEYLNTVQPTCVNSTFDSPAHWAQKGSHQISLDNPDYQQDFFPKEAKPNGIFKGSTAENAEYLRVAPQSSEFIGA

[5] = biological target: Proto-oncogene tyrosine-protein kinase Src (Homo sapiens, UniProt P12931); experiment: Inhibition of SRC (unknown origin)
Proto-oncogene tyrosine-protein kinase Src, sequence (P12931 2-536 limits assumed): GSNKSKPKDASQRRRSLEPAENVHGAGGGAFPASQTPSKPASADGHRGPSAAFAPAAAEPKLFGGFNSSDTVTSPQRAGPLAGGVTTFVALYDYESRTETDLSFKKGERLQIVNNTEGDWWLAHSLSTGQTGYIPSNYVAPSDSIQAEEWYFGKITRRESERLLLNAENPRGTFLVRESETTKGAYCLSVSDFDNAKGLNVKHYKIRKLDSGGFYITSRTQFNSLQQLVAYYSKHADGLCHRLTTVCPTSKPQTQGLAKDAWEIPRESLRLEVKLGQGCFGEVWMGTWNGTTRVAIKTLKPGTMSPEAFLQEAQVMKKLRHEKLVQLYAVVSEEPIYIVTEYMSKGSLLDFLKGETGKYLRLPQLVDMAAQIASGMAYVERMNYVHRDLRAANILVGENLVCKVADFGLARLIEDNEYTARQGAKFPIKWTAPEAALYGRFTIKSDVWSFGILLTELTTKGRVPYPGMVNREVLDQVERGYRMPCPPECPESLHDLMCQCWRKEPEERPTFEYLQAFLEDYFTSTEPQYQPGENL

[6] = biological target: Mitogen-activated protein kinase 3 (Homo sapiens, UniProt P27361); experiment: Inhibition of ERK1 (unknown origin)
Mitogen-activated protein kinase 3, sequence (P27361 whole entry): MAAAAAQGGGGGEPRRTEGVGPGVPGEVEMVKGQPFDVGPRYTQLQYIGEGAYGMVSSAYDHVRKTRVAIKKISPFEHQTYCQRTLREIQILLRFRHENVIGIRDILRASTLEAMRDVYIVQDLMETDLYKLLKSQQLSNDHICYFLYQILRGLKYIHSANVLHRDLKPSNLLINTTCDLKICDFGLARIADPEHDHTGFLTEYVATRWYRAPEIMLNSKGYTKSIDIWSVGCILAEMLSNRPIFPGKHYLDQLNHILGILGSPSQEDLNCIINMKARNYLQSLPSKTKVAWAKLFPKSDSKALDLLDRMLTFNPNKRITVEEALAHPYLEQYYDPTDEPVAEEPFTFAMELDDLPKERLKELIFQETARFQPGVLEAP

[7] = biological target: T1, Signal transducer and activator of transcription 3; experiment: Inhibition of STAT3 in human MGC-803 cells assessed as downregulation of c-Myc expression incubated up to 24 hrs by western blot analysis; format: cell-based; conditions: dose <= 40.0 nM, DDE = dose-dependent effect
[8] = biological target: T1, Signal transducer and activator of transcription 3; experiment: Inhibition of STAT3 in human MKN-45 cells assessed as downregulation of cyclin D1 expression up to 40 nM by western blot analysis; format: cell-based; conditions: time <= 24.0 hrs, TDE = time-dependent effect
[9] = biological target: T1, Signal transducer and activator of transcription 3; experiment: Inhibition of IL-6 induced STAT3 phosphorylation at Tyr705 residue in human MKN-45 cells at 40 nM preincubated for 24 hrs followed by IL-6 stimulation and measured after 30 min by Western blotting analysis; format: cell-based; conditions: time 24.5 hrs
MKN-45 [10] = experiment: Inhibition of mitochondrial respiration in human MKN-45 cells assessed as oxygen consumption rate incubated for 1 hr by Seahorse XF24 extracellular flux analyzer; format: functional, cell-based; conditions: dose 1-100 nM, DDE = dose-dependent effect
MKN-45 [11] = experiment: Inhibition of mitochondrial respiration in human MKN-45 cells assessed as decrease in basal oxygen consumption rate at 1 to 100 nM incubated for 1 hr by Seahorse XF24 extracellular flux analyzer; format: functional, cell-based; conditions: dose 1-100 nM
MKN-45 [12] = experiment: Inhibition of mitochondrial respiration in human MKN-45 cells assessed as maximal oxygen consumption rate at 1 to 100 nM incubated for 1 hr by Seahorse XF24 extracellular flux analyzer; format: functional, cell-based; conditions: dose 1-100 nM
AGS [13] = experiment: Antiproliferative activity against human AGS cells assessed as cell viability incubated for 72 hrs by MTS assay; format: functional, cell-based; conditions: dose <= 100.0 nM, DDE = dose-dependent effect
MGC-803 [14] = experiment: Antiproliferative activity against human MGC-803 cells assessed as cell viability incubated for 72 hrs by MTS assay; format: functional, cell-based; conditions: dose <= 100.0 nM, DDE = dose-dependent effect
[15] = Apparent volume of distribution in ICR mouse plasma at 1 mg/kg, iv measured up to 24 hrs by LC-MS/MS analysis; format: ADME, organism-based; conditions: read-out: Vz
MKN-45 [16] = experiment: Induction of apoptosis in human MKN-45 cells assessed as late apoptic cells 5 nM incubated for 48 hrs by FITC-annexin V/propidium iodide staining based flow cytometry (reference value: 17.9%); format: functional
MKN-45 [17] = experiment: Induction of apoptosis in human MKN-45 cells assessed as early apoptic cells 5 nM incubated for 48 hrs by FITC-annexin V/propidium iodide staining based flow cytometry (reference value: 2.79%); format: functional
MKN-45 [18] = experiment: Induction of apoptosis in human MKN-45 cells assessed as early apoptic cells 10 nM incubated for 48 hrs by FITC-annexin V/propidium iodide staining based flow cytometry (reference value: 2.79%); format: functional
MKN-45 [19] = experiment: Induction of apoptosis in human MKN-45 cells assessed as necrotic cells 10 nM incubated for 48 hrs by FITC-annexin V/propidium iodide staining based flow cytometry (reference value: 10.3%); format: functional
AGS [20] = experiment: Induction of apoptosis in human AGS cells assessed as early apoptic cells 5 nM incubated for 48 hrs by FITC-annexin V/propidium iodide staining based flow cytometry (reference value: 0.55%); format: functional
AGS [21] = experiment: Induction of apoptosis in human AGS cells assessed as late apoptic cells 5 nM incubated for 48 hrs by FITC-annexin V/propidium iodide staining based flow cytometry (reference value: 9.56%); format: functional
AGS [22] = experiment: Induction of apoptosis in human AGS cells assessed as necrotic cells 5 nM incubated for 48 hrs by FITC-annexin V/propidium iodide staining based flow cytometry (reference value: 2.70%); format: functional
Cytochrome P450 2C9 = Cytochrome P450 2C9 (Homo sapiens, UniProt P11712); experiment: Inhibition of CYP2C9 in human liver microsome; format: ADME, microsomes
Cytochrome P450 2C9, sequence (P11712 whole entry): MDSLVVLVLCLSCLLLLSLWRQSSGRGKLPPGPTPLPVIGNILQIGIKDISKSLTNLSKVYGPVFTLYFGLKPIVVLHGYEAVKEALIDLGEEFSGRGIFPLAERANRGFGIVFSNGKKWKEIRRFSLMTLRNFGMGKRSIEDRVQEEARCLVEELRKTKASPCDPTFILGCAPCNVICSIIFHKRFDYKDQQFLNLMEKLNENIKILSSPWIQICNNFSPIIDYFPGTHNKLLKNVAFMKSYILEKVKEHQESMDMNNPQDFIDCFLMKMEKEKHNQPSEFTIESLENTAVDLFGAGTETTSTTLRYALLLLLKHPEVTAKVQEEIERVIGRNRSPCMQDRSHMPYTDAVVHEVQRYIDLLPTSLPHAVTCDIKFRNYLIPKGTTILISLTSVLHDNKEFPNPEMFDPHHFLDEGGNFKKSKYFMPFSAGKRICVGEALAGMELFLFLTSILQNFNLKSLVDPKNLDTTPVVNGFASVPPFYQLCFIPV

[23] = Cmax in ICR mouse plasma at 1 mg/kg, iv measured up to 24 hrs by LC-MS/MS analysis; format: ADME, organism-based; design: time < 24 hrs, dose 1 mg/kg, route iv
[24] = Cmax in ICR mouse plasma at 10 mg/kg, po measured up to 24 hrs by LC-MS/MS analysis; format: ADME, organism-based; design: dose 10 mg/kg, time < 24 hrs, route po
[25] = AUC (0 to t) in ICR mouse plasma at 1 mg/kg, iv measured up to 24 hrs by LC-MS/MS analysis; format: ADME, organism-based; design: dose 1 mg/kg, time < 24 hrs, route iv
[26] = AUC (0 to t) in ICR mouse plasma at 10 mg/kg, po measured up to 24 hrs by LC-MS/MS analysis; format: ADME, organism-based; design: time < 24 hrs, dose 10 mg/kg, route po
[27] = Volume of distribution at steady state in ICR mouse plasma at 1 mg/kg, iv measured up to 24 hrs by LC-MS/MS analysis; format: ADME, organism-based; conditions: read-out: Vdss
MGC-803 [28] = experiment: Inhibition of colony formation in STAT3 knockdown human MGC-803 cells assessed as reduction in number of colonies incubated for 5 to 7 days by crystal violet staining based assay; format: functional, cell-based; conditions: time 5-7 day
MKN-45 [29] = experiment: Antitumor activity against human MKN-45 cells xenografted in BALB/c nude mouse assessed as decrease in tumor volume at 25 mg/kg, po qd measured for 5 weeks; format: functional, organism-based
MKN-45 [30] = experiment: In vivo inhibition of STAT3 in human MKN-45 cells xenografted in BALB/c nude mouse assessed as reduction in STAT3 gene expression at 25 to 50 mg/kg, po qd administered for 5 weeks by Western blot analysis; format: functional, organism-based; conditions: dose 25-50 mg/kg
[31] = Toxicity in BALB/c nude mouse xenografted with human MKN-45 cells assessed as kidney damage at 25 to 50 mg/kg, po qd administered for 5 weeks by H and E staining based analysis; format: organism-based; conditions: in vivo, 840 h, dose 25-50 mg/kg
[32] = Toxicity in BALB/c nude mouse xenografted with human MKN-45 cells assessed as spleen damage at 25 to 50 mg/kg, po qd administered for 5 weeks by H and E staining based analysis; format: organism-based; conditions: in vivo, 840 h, dose 25-50 mg/kg
[33] = Toxicity in […] mouse assessed as body weight loss at 25 to 50 mg/kg, po qd administered for 5 weeks; format: organism-based; conditions: in vivo, 840 h, dose 25-50 mg/kg
MKN-45 [34] = experiment: Inhibition of STAT3 mediated oxidative phosphorylation at Ser727 residue in human MKN-45 cells assessed as reduction in oxidative phosphorylation at less than 40 nM incubated for 1 hr by Seahorse XF24 extracellular flux analyzer; format: functional, cell-based

Compound: O=C(c1ccc(-c2noc(-c3ccc(C(F)(F)F)cc3)n2)cc1)N1CCN(Cc2ccc(OCC(F)(F)F)cc2)CC1
- inhibition (MKN-45 [1]): Active
- Activity (MKN-45 [2]): 11.3%
- inhibition [3]: Tde
- IC50 [4]: > 10 µM
- IC50 [5]: > 10 µM
- IC50 [6]: > 10 µM
- inhibition [7]: Dde
- inhibition [8]: Tde
- inhibition [9]: Active
- inhibition (MKN-45 [10]): Dde
- inhibition (MKN-45 [11]): Active
- inhibition (MKN-45 [12]): Active
- Activity (AGS [13]): Dde
- Activity (MGC-803 [14]): Dde
- Vd [15]: 5.76 L/kg
- Activity (MKN-45 [16]): 17.1%
- Activity (MKN-45 [17]): 4.73%
- Activity (MKN-45 [18]): 5.7%
- Activity (MKN-45 [19]): 9.14%
- Activity (AGS [20]): 2.7%
- Activity (AGS [21]): 7.61%
- Activity (AGS [22]): 3.96%
- IC50 (Cytochrome P450 2C9): 22.9 µM
- Cmax [23]: 666 ng/mL
- Cmax [24]: 529 ng/mL
- AUC(0-t) at 24 h [25]: 1730 ng·h/mL
- AUC(0-t) at 24 h [26]: 9400 ng·h/mL
- Vd [27]: 6.56 L/kg
- inhibition (MGC-803 [28]): Active
- Activity (MKN-45 [29]): Active
- inhibition (MKN-45 [30]): Active
- Activity [31]: Non-Toxic
- Activity [32]: Non-Toxic
- Activity [33]: Non-Toxic
- inhibition (MKN-45 [34]): Active
